Results: article PMC4685943 (ACS Chemical Biology, 2015)

What was measured:
[1] = system: NCI-H2286 and HCC-366; assay: Cell proliferation assays in DDR2 mutated cell lines; type: cell-based; conditions: NCI-H2286 and HCC-366, 5 days, single agent
[2] = target: T1, DDR2 (Homo sapiens, UniProt Q16832); assay: DDR2 phosphorylation, IP/Western blot in 293T cells expressing wild type DDR2; type: cell-based; conditions: 293T cells expressing wild type DDR2, IP anti-DDR2 / blot 4G10
T1 sequence (Q16832 22-855): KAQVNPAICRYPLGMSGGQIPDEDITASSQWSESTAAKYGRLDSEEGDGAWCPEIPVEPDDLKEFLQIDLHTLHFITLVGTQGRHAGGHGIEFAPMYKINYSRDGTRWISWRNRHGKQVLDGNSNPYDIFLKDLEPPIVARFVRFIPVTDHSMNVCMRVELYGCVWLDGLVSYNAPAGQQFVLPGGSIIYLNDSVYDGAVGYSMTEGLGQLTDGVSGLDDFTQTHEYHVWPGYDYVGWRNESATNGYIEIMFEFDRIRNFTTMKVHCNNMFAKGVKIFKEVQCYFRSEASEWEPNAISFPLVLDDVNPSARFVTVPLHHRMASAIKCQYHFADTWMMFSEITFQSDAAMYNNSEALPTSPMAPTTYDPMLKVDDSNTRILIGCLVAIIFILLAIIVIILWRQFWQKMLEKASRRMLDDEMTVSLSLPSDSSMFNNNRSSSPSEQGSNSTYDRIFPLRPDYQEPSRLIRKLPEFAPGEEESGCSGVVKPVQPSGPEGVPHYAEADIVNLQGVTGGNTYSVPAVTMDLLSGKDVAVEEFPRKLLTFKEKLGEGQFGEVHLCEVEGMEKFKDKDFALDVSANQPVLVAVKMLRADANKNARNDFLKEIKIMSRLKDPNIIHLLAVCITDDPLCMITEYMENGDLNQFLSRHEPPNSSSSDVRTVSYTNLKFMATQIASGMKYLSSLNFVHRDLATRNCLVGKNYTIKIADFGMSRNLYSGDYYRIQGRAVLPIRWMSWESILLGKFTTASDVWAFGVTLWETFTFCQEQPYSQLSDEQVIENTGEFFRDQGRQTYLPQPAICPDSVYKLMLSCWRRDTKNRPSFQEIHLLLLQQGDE

| SMILES | antiproliferative potency in DDR2 mutated cell lines [1] | effect on p-DDR2 [2] |
| --- | --- | --- |
| CN1CCN(CCOc2cc(OC3CCOCC3)c3c(Nc4c(Cl)ccc5c4OCO5)ncnc3c2)CC1 [Saracatinib] | greater inhibition of cell proliferation as compared to compound 1 | – |
| Cc1nc(Nc2ncc(C(=O)Nc3c(C)cccc3Cl)s2)cc(N2CCN(CCO)CC2)n1 [Dasatinib] | – | potent inhibition |
